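Values below derive from 48-hour exposures of cells grown in 96-well plates, with endpoints linearly interpolated between the two concentrations bracketing the appropriate inhibition level. GI50: concentration for 50% inhibition of growth.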 Calls of active or inactive are those of the source. No stated cut-off is given here; in the data, active = GI50 up to about 1.1 µM and inactive = higher.
Key:
Assay in all cases: NCI tumour cell line growth inhibition, 48 h
HOP-92 = test system: HOP-92
NCI-H23 = test system: NCI-H23
SN12C = test system: SN12C
RXF 393 = test system: RXF 393
EKVX = test system: EKVX
MOLT-4 = test system: MOLT-4
SNB-19 = test system: SNB-19
NCI-H460 = test system: NCI-H460
OVCAR-4 = test system: OVCAR-4
SF-295 = test system: SF-295
SK-MEL-2 = test system: SK-MEL-2
SK-MEL-5 = test system: SK-MEL-5
U-251 = test system: U-251
786-0 = test system: 786-0
K562 = test system: K562
OVCAR-5 = test system: OVCAR-5
Malme-3M = test system: Malme-3M

Measured: GI50

c1ccc(SC(CCCCC(Sc2ccccc2)Sc2ccccc2)Sc2ccccc2)cc1
inactive: HOP-92 > 100 µM | NCI-H23 > 100 µM | SN12C > 100 µM | RXF 393 > 100 µM | EKVX > 100 µM | MOLT-4 > 100 µM | SNB-19 > 100 µM | NCI-H460 > 100 µM | OVCAR-4 > 100 µM | SF-295 > 100 µM | SK-MEL-2 > 100 µM | SK-MEL-5 > 100 µM | U-251 > 100 µM | 786-0 > 100 µM | K562 > 100 µM

CO[C@@H]1C=C[C@@]23c4cc5c(cc4C(=O)O[C@H]2CN(C)[C@H]3C1)OCO5
inactive: HOP-92 > 100 µM | NCI-H23 > 100 µM | SN12C > 100 µM | RXF 393 > 100 µM | EKVX > 100 µM | MOLT-4 > 100 µM | SNB-19 > 100 µM | NCI-H460 > 100 µM | OVCAR-4 > 100 µM | SF-295 > 100 µM | OVCAR-5 > 100 µM | SK-MEL-2 > 100 µM | SK-MEL-5 > 100 µM | U-251 > 100 µM | 786-0 > 100 µM | K562 > 100 µM

CC1=CCN(c2ccccn2)OC1c1ccccc1 (stereo not drawn)
inactive: NCI-H23 > 100 µM | SN12C > 100 µM | RXF 393 62.8 µM | EKVX > 100 µM | MOLT-4 > 100 µM | SNB-19 > 100 µM | NCI-H460 > 100 µM | OVCAR-4 > 100 µM | SF-295 > 100 µM | Malme-3M > 100 µM | OVCAR-5 59.8 µM | SK-MEL-2 > 100 µM | U-251 > 100 µM | 786-0 > 100 µM | K562 > 100 µM

CCCCCCCCCCCCCC(=O)OCC1OC(OC)C(NC(=O)N(CCCl)N=O)C(O)C1O (stereo not drawn)
inactive: NCI-H23 12.9 µM | SN12C 25.5 µM | RXF 393 16.4 µM | MOLT-4 2.06 µM | SNB-19 18.5 µM | NCI-H460 4.93 µM | OVCAR-4 20.6 µM | SF-295 7.43 µM | Malme-3M 27 µM | OVCAR-5 25.6 µM | SK-MEL-2 38.1 µM | SK-MEL-5 16.2 µM | U-251 12.6 µM | 786-0 2.59 µM | K562 12.5 µM

O=C(Nc1nnc(S)[nH]1)C(=O)C1C(=O)Nc2ccccc2[S+]1[O-] (stereo not drawn)
inactive: HOP-92 > 100 µM | NCI-H23 > 100 µM | SN12C > 100 µM | EKVX > 100 µM | MOLT-4 > 100 µM | SNB-19 > 100 µM | NCI-H460 > 100 µM | OVCAR-4 > 100 µM | SF-295 > 100 µM | Malme-3M > 100 µM | SK-MEL-5 > 100 µM | 786-0 > 100 µM

O=c1[nH]nc(-c2ccccc2)c(-c2ccccc2)c1-n1nc(-c2ccccc2)c2ccccc2c1=O
inactive: HOP-92 75.5 µM | NCI-H23 > 100 µM | SN12C > 100 µM | EKVX > 100 µM | MOLT-4 17 µM | NCI-H460 90.6 µM | OVCAR-4 > 100 µM | SF-295 43.2 µM | Malme-3M > 100 µM | OVCAR-5 > 100 µM | SK-MEL-2 69 µM | SK-MEL-5 > 100 µM | U-251 50.8 µM | 786-0 > 100 µM | K562 27.9 µM

O=C1/C(=C\c2ccccc2)c2ccccc2N1/N=C\c1ccccc1
inactive: HOP-92 > 100 µM | NCI-H23 > 100 µM | SN12C > 100 µM | EKVX 23.2 µM | MOLT-4 22.5 µM | SNB-19 > 100 µM | NCI-H460 > 100 µM | OVCAR-4 > 100 µM | SF-295 > 100 µM | Malme-3M > 100 µM | OVCAR-5 > 100 µM | SK-MEL-2 > 100 µM | SK-MEL-5 48.4 µM | U-251 > 100 µM | 786-0 81.5 µM | K562 42.7 µM

COc1ccccc1OCC(COC(=O)Nc1ccc(C)cc1)OC(=O)Nc1ccc(C)cc1 (stereo not drawn)
inactive: HOP-92 7.59 µM | NCI-H23 23.2 µM | SN12C 17.9 µM | RXF 393 7.19 µM | EKVX 25 µM | MOLT-4 18.9 µM | SNB-19 18.7 µM | NCI-H460 16.7 µM | SF-295 21.9 µM | Malme-3M 17.4 µM | OVCAR-5 21.8 µM | SK-MEL-2 13.8 µM | SK-MEL-5 20.7 µM | U-251 13.8 µM | 786-0 20 µM | K562 18.5 µM

O=C(N/N=C(/c1nc2ccc([N+](=O)[O-])cc2[nH]c1=O)C(O)c1ccc([N+](=O)[O-])cc1)c1ccncc1 (stereo not drawn)
inactive: HOP-92 > 100 µM | NCI-H23 > 100 µM | SN12C > 100 µM | EKVX > 100 µM | MOLT-4 > 100 µM | NCI-H460 > 100 µM | OVCAR-4 > 100 µM | SF-295 > 100 µM | Malme-3M > 100 µM | OVCAR-5 > 100 µM | SK-MEL-2 > 100 µM | SK-MEL-5 36.3 µM | U-251 > 100 µM | 786-0 > 100 µM | K562 23.1 µM

C[N+](C)(C)CC(=O)N/N=C(/Cc1nc2ccc(Cl)cc2nc1O)C1=NS(=O)(=O)c2cc(S(N)(=O)=O)c(Cl)cc2N1
inactive: NCI-H23 > 100 µM | SN12C > 100 µM | RXF 393 > 100 µM | EKVX 6.75 µM | MOLT-4 > 100 µM | SNB-19 > 100 µM | NCI-H460 > 100 µM | OVCAR-4 > 100 µM | SF-295 > 100 µM | Malme-3M > 100 µM | OVCAR-5 > 100 µM | SK-MEL-2 > 100 µM | SK-MEL-5 > 100 µM | 786-0 > 100 µM | K562 > 100 µM

N=C1SCCS1
inactive: HOP-92 59 µM | NCI-H23 > 100 µM | SN12C > 100 µM | EKVX > 100 µM | MOLT-4 > 100 µM | SNB-19 > 100 µM | NCI-H460 > 100 µM | OVCAR-4 > 100 µM | SF-295 > 100 µM | Malme-3M > 100 µM | OVCAR-5 > 100 µM | SK-MEL-2 > 100 µM | SK-MEL-5 > 100 µM | U-251 > 100 µM | 786-0 > 100 µM | K562 > 100 µM

Cc1ccc(NC(=O)C(=O)C(C(=O)/C=C/c2ccccc2)C2OC(=O)c3ccccc32)c(C)c1 (stereo not drawn)
inactive: HOP-92 > 100 µM | NCI-H23 > 100 µM | SN12C > 100 µM | RXF 393 > 100 µM | EKVX > 100 µM | MOLT-4 77.4 µM | SNB-19 > 100 µM | NCI-H460 > 100 µM | OVCAR-4 > 100 µM | SF-295 > 100 µM | Malme-3M > 100 µM | OVCAR-5 > 100 µM | SK-MEL-5 > 100 µM | U-251 > 100 µM | 786-0 > 100 µM | K562 85.7 µM

CC1(C)COC(C23C4C5C2C2C3C4C52I)=N1 (stereo not drawn)
inactive: HOP-92 > 100 µM | NCI-H23 > 100 µM | SN12C > 100 µM | RXF 393 > 100 µM | EKVX > 100 µM | MOLT-4 > 100 µM | SNB-19 > 100 µM | NCI-H460 > 100 µM | OVCAR-4 > 100 µM | SF-295 > 100 µM | Malme-3M > 100 µM | OVCAR-5 > 100 µM | SK-MEL-5 > 100 µM | U-251 > 100 µM | 786-0 > 100 µM | K562 > 100 µM

From ChEMBL document CHEMBL1201862, “PubChem BioAssay data set” (2004)
